What was measured:
[1] = system: PC3 cells; assay: PC3 prostate cancer cell proliferation (WST); assay type: cell-based; settings: Homo sapiens, PC-3; 72 hours; read-out: IC50 PC3 Proliferation
Procedure: PC3 cells were obtained from the American Type Culture Collection (ATCC, Manassas, Va., Cat.# CRL-1435) Two thousand cells from the prostate cancer line PC3 were placed in 50 μL of complete RPMI 1640 media (Invitrogen, Carlsbad, Calif., Cat.#22400-105) with 10% fetal bovine serum (Invitrogen, Carlsbad, Calif., Cat.#10438-026) into each well of 96 well cell culture plates in a hexaplicate sampling pattern. A 50 μL aliquot of test compound (prepared from stock test compounds in DMSO diluted into media) was added to the appropriate well such that the final concentrations of test compound were 200, 40, 8, 1.6, 0.32, 0.064, 0.0128, 0.00256, and 0 μM and the final DMSO concentration was less than or equal to 0.2%.
The plates were incubated for 72 hours 37° C. in an atmosphere of 5% CO2. At the end of this time a 10 μL aliquot of WST solution (Roche Applied Science, Mannheim, Germany) was added into each of the wells. Cells were exposed to the WST solution for 4 hours. A SpectraMax Plus spectrophotometric plate reader (Molecular Devices, Sunnydale, Calif.) was then used to measure the optical density at 450 nm (OD450 nm). Sigmoidal curves were drawn for the dose responses and IC50 values were calculated using the software package GraphPad Prism4 (GraphPad Software, Inc., San Diego, Calif.).

[2] = system: MCF7 breast cancer cells; assay: Mammosphere cancer stem cell inhibition assay; assay type: cell-based
Procedure: A mammosphere cancer stem cell inhibition assay was set up using literature methods (T. M. Phillips et al. J. Natl. Cancer I. 2006, 98, 1777-1785, “Mammalian target of rapamycin contributes to the acquired apoptotic resistance of human mesothelioma multicellular spheroids”) using a subset of MCF7 breast cancer cells that posses the ability to evade anchorage independent apoptosis. Commercially available MCF7 breast cancer cells were cultured in MEM supplemented with 0.01 mg/mL of bovine insulin and 10% FBS at 37° C. in humidified atmosphere (5% CO2). Floating cells in the 2-day cultures were collected, washed, and resuspended in DMEM-F12 (50:50) supplemented with 0.4% BSA, 5 μg/mL bovine insulin, 20 ng/mL bFGF, and 10 ng/mL EGF. Cells were then passed through a […] sieve to remove any cell clusters and adjusted to a density of 10,000 cells/mL. Approximately 500 cells were plated in quadruplicate in a sterile poly-HEMA-treated 96-well plate. Cells were then treated with either control or test solutions consisting of the kinase inhibitor Lapatinib (1 μM), Cpd 28 (1 or 10 μM), Cpd 55 (1 or 10 μM), The numbers of mammospheres (clusters of cells numbering more than 4 or 5 per cluster) were then counted after 5-7 days.

Row | Compound | IC50 [1] | further results
1 | O=c1cc(N2CCOCC2)oc2c(C#CCO)csc12 [Compound 24] | 28.2 µM | –
2 | O=c1cc(N2CCOCC2)oc2c(-c3ccc(Cl)c(Cl)c3)csc12 [Compound 18] | 37.6 µM | –
3 | O=C(NCc1ccccc1)c1csc2c(=O)cc(N3CCOCC3)oc12 [Compound 53] | 113 µM | –
4 | O=c1cc(N2CCOCC2)oc2c(-c3ccc(O)cc3)csc12 [Compound 98] | 6.12 µM | –
5 | O=c1cc(N2CCOCC2)oc2c(-c3cccc(C(F)(F)F)c3)csc12 [Compound 92] | 6.28 µM | –
6 | O=C(O)c1ccc(-c2csc3c(=O)cc(N4CCOCC4)oc23)cc1 [Compound 100] | 129 µM | –
7 | O=c1cc(N2CCOCC2)oc2c(-c3ccc(Cl)nc3)csc12 [Compound 32] | 9.01 µM | –
8 | O=C(Nc1ccccn1)c1cccc(-c2csc3c(=O)cc(N4CCOCC4)oc23)c1 [Compound 66] | 6.91 µM | –
9 | O=c1cc(N2CCOCC2)oc2c(-c3cccnc3)csc12 [Compound 3, 5-morpholino-3-(pyridin-3-yl)-7H-thieno[3,2-b]pyran-7-one] | 10.9 µM | –
10 | O=c1cc(C2CCOCC2)oc2c(-c3ccccc3)cccc12 [Compound 67, 8-Phenyl-2-(tetrahydro-2H-pyran-4-yl)-4H-chromen-4-one] | 95.8 µM | –
11 | O=c1cc(N2CCOCC2)oc2c(Cc3ccccc3)csc12 [Compound 1] | 20.2 µM | –
12 | CN(C)c1ccc(NC(=O)c2cccc(-c3csc4c(=O)cc(N5CCOCC5)oc34)c2)cc1 [Compound 65] | 12.7 µM | –
13 | O=c1cc(N2CCOCC2)oc2c(-c3ccoc3)csc12 [Compound 27] | 9.26 µM | –
14 | O=c1cc(N2CCOCC2)oc2c(-c3ccc(O)c(Cl)c3)csc12 [Compound 93] | 6.14 to 9.43 µM | –
15 | O=c1cc(N2CCOCC2)oc2c(-c3ccco3)csc12 [Compound 4] | 5.9 µM | –
16 | O=c1cc(N2CCOCC2)oc2c(C#Cc3ccsc3)csc12 [Compound 23] | 7.35 µM | –
17 | O=c1cc(N2CCOCC2)oc2c(-c3cccc(O)c3)csc12 [Compound 99] | 16.6 µM | –
18 | O=c1cc(N2CCOCC2)oc2c(-c3cc4ccccc4[nH]3)csc12 [Compound 12] | 8.55 µM | –
19 | O=C(NCCN1CCOCC1)c1cccc(-c2csc3c(=O)cc(N4CCOCC4)oc23)c1 [Compound 42] | 7.84 µM | –
20 | O=c1cc(N2CCOCC2)oc2c(-c3ccc(Cl)cc3)csc12 [Compound 17, 3-(4-chlorophenyl)-5-morpholino-7H-thieno[3,2-b]pyran-7-one] | 29 µM | –

Row | Compound | IC50 [1] | further results
21 | COc1cc(-c2csc3c(=O)cc(N4CCOCC4)oc23)ccc1N [Compound 95] | 81.9 µM | –
22 | CCN(CC)C(=O)c1csc2c(=O)cc(N3CCOCC3)oc12 [Compound 52] | 157 µM | –
23 | O=C(NCCN1CCOCC1)c1csc2c(=O)cc(N3CCOCC3)oc12 [Compound 90] | 19.9 µM | –
24 | O=c1cc(N2CCOCC2)oc2c(-c3ccc(C(F)(F)F)cc3)csc12 [Compound 20] | 774 µM | –
25 | CN1CCN(c2ncc(-c3csc4c(=O)cc(N5CCOCC5)oc34)cn2)CC1 [Compound 43] | 9.35 µM | inhibition of mammosphere production versus control ([2]; 1 μM, separate experiment): ~53%; number of mammospheres ([2]; 1 μM, separate experiment, control 32±6): 18±6 mammospheres; inhibition of mammosphere production versus control ([2]; 10 μM, separate experiment): ~58%; number of mammospheres ([2]; 10 μM, separate experiment, control 32±6): 16±6 mammospheres
26 | O=C(Nc1cccc(-c2csc3c(=O)cc(N4CCOCC4)oc23)c1)c1cccnc1 [Compound 46] | 62.1 µM | –
27 | S=c1cc(N2CCOCC2)oc2c(-c3ccccc3)cccc12 [Compound 68, 2-morpholino-8-phenyl-4H-chromene-4-thione] | 34.8 µM | –
28 | O=c1cc(N2CCOCC2)oc2c(-c3ccncc3)csc12 [Compound 2] | 18.5 µM | –
29 | O=C(Nc1cccnc1)c1ccc(-c2csc3c(=O)cc(N4CCOCC4)oc23)cc1 [Compound 58] | 16.7 µM | –
30 | O=c1cc(N2CCOCC2)oc2c(-c3ccc4[nH]ccc4c3)csc12 [Compound 19] | 8.13 µM | –
31 | O=C(Nc1ccncc1)c1cccc(-c2csc3c(=O)cc(N4CCOCC4)oc23)c1 [Compound 64] | 17.9 µM | –
32 | O=C(Nc1ccncc1)c1ccc(-c2csc3c(=O)cc(N4CCOCC4)oc23)cc1 [Compound 59] | 17.5 µM | –
33 | O=C(NCc1ccccc1)c1cccc(-c2csc3c(=O)cc(N4CCOCC4)oc23)c1 [Compound 63] | 7.84 µM | –
34 | COC(=O)c1scc(-c2csc3c(=O)cc(N4CCOCC4)oc23)c1O [Compound 21, methyl 3-hydroxy-4-(5-morpholino-7-oxo-7H-thieno[3,2-b]pyran-3-yl)thiophene-2-carboxylate] | 34.8 µM | –
35 | Nc1cccc(C#Cc2csc3c(=O)cc(N4CCOCC4)oc23)c1 [Compound 96] | 24.8 µM | –
36 | O=C(Nc1ccccc1)c1csc2c(=O)cc(N3CCOCC3)oc12 [Compound 51, 5-morpholino-7-oxo-N-phenyl-7H-thieno[3,2-b]pyran-3-carboxamide] | 23.8 µM | –
37 | Cc1cccc(-c2csc3c(=O)cc(N4CCOCC4)oc23)c1 [Compound 16] | 6.03 µM | –
38 | O=c1cc(N2CCOCC2)oc2c(-c3ccc(Br)cc3)csc12 [Compound 101] | 21.8 µM | –
39 | O=C(NCc1ccc(Cl)cc1)c1csc2c(=O)cc(N3CCOCC3)oc12 [Compound 88] | 22 µM | –

The next compounds have a lower IC50 [1] than those just listed; values first:

Row | IC50 [1] | Compound | further results
40 | 5 µM | O=C(Nc1ccccn1)c1ccc(-c2csc3c(=O)cc(N4CCOCC4)oc23)cc1 [Compound 61] | –
41 | 4.36 µM | O=c1cc(N2CCOCC2)oc2c(-c3cccs3)csc12 [Compound 14] | –
42 | 1.05 µM | CN1CCOc2cc(-c3csc4c(=O)cc(N5CCOCC5)oc34)ccc21 [Compound 22] | –
43 | 1.82 µM | COc1ccc(-c2csc3c(=O)cc(N4CCOCC4)oc23)cc1 [Compound 8] | –
44 | 3.31 µM | O=c1cc(N2CCOCC2)oc2c(C#Cc3cccc(F)c3)csc12 [Compound 39] | –
45 | 2.07 µM | CNc1ccc(-c2csc3c(=O)cc(N4CCOCC4)oc23)cc1 [Compound 41] | –
46 | 3.18 µM | CN(C)c1ccc(C(=O)Nc2cccc(-c3csc4c(=O)cc(N5CCOCC5)oc34)c2)cc1 [Compound 49] | –
47 | 3.45 µM | O=c1cc(N2CCOCC2)oc2c(-c3cccc(Cl)c3)csc12 [Compound 85, 3-(3-chlorophenyl)-5-morpholino-7H-thieno[3,2-b]pyran-7-one] | –
48 | 4.48 µM | Cc1ccc(-c2csc3c(=O)cc(N4CCOCC4)oc23)cc1 [Compound 15] | –
49 | 2 µM | O=C(Nc1ccc(-c2csc3c(=O)cc(N4CCOCC4)oc23)cc1)c1ccccc1 [Compound 34] | –
50 | 4.76 µM | O=C(NCc1ccccc1)c1ccc(-c2csc3c(=O)cc(N4CCOCC4)oc23)cc1 [Compound 50, N-benzyl-4-(5-morpholino-7-oxo-7H-thieno[3,2-b]pyran-3-yl)benzamide] | –
51 | 1.8 µM | COc1cc(C#Cc2csc3c(=O)cc(N4CCOCC4)oc23)cc(OC)c1 [Compound 40] | –
52 | 3.69 µM | O=c1cc(N2CCOCC2)oc2c(C#Cc3ccccc3)csc12 [Compound 31, 5-morpholino-3-(phenylethynyl)-7H-thieno[3,2-b]pyran-7-one] | –
53 | 4.67 µM | COC(=O)c1cccc(-c2csc3c(=O)cc(N4CCOCC4)oc23)c1 [Compound 45] | –
54 | 4.76 µM | COc1cccc(-c2csc3c(=O)cc(N4CCOCC4)oc23)c1 [Compound 29] | –
55 | 1.74 µM | O=c1cc(N2CCOCC2)oc2c(-c3ccc4c(c3)OCO4)csc12 [Compound 7] | –
56 | 4.39 µM | COC(=O)c1ccc(-c2csc3c(=O)cc(N4CCOCC4)oc23)cc1 [Compound 44] | –
57 | 2.69 µM | CN(C(=O)OC(C)(C)C)c1ccc(-c2csc3c(=O)cc(N4CCOCC4)oc23)cc1 [Compound 36] | –
58 | 5.6 µM | O=c1cc(N2CCOCC2)oc2c(-c3ccsc3)csc12 [Compound 26] | –
59 | 1.05 to 1.5 µM | O=C(Nc1ccc(-c2csc3c(=O)cc(N4CCOCC4)oc23)cc1)c1cccnc1 [Compound 55] | inhibition of mammosphere production versus control ([2]; 1 μM, first experiment): approximately 60%; number of mammospheres ([2]; 1 μM, first experiment, control 38±4): 16±2 mammospheres; inhibition of mammosphere production versus control ([2]; 10 μM, first experiment): ~86%; number of mammospheres ([2]; 10 μM, first experiment, control 38±4): 5±1 mammospheres
60 | 2.7 to 5.59 µM | O=c1cc(N2CCOCC2)oc2c(-c3ccc4cc[nH]c4c3)csc12 [Compound 35] | –
61 | 2.5 µM | CN(C)c1ccc(C#Cc2csc3c(=O)cc(N4CCOCC4)oc23)cc1 [Compound 37] | –

— patent US9981983B2, “Thienopyranones as kinase inhibitors” (SignalRx Pharmaceuticals, Inc., priority 2008, dated 2018)
